Read-outs that look alike come from different tables or passages of the source.
Tests used:
[1] = peroxidation in liposomes with chelators; assay type: physicochemical
[2] = chemical modification of DXR in stored liposomes; assay type: physicochemical; conditions: stored anoxic 1 day at 4° C.
Procedure: The liposomes were stored under anoxic conditions for 1 day at 4° C., as above. Chemical modification of the drug was detected both by fluorescence emission spectroscopy and by assaying the change in drug toward a more lipophilic species, as described in Section A above.

[3] = Fe^3+; cited from earlier work
[4] = Ca^2+; cited from earlier work
[5] = Mg^2+; cited from earlier work
[6] = Zn^2+; cited from earlier work
[7] = Ni^2+; cited from earlier work
[8] = Co^2+; cited from earlier work
[9] = Cu^2+; cited from earlier work
[10] = Fe^2+; cited from earlier work
[11] = in vivo; cited from earlier work
[12] = prior to or concurrent with DXR administration; cited from earlier work

Compound: O=C(O)CN(CCN(CC(=O)O)CC(=O)O)CCN(CC(=O)O)CC(=O)O [DTPA]
- effect on anthraquinone modification in vitro ([1]; in the presence of lipids and ferric iron): protective effect

Compound: O=C(O)CN(CCN(CC(=O)O)CC(=O)O)CC(=O)O [EDTA, ethylenediaminetetraacetic acid]
- effect on peroxidation damage in liposomes [1]: peroxidation-stimulating effect

Compound: CC(=O)N(O)CCCCCNC(=O)CCC(=O)N(O)CCCCCNC(=O)CCC(=O)N(O)CCCCCN [ferrioxamine, ferrioxamine B]
- protection against drug modification [2]: moderate protections
- Binding Affinity [3]: 10^31
- Binding Affinity [4]: 10^2
- Binding Affinity [5]: 10^4
- Binding Affinity [6]: 10^11
- Binding Affinity [7]: 10^10
- Binding Affinity [8]: 10^11
- Binding Affinity [9]: 10^14
- Binding Affinity [10]: 10^10
- safety for parenteral use in humans [11]: proven safe for parenteral use in humans

Compound: Cc1c(C)c2c(c(C)c1O)CCC(C)(CCCC(C)CCCC(C)CCCC(C)C)O2 (stereo not drawn) [α-T, alpha-tocopherol]
- protection against drug modification [2]: moderate protections
- reduction of cardiotoxicity [12]: effective in reducing cardiotoxicity

Reference: patent US5043166A, “Liposome/anthraquinone drug composition and method” (priority 1989, dated 1991)
